From ChEMBL document CHEMBL5715949, “Discovery of a selective irreversible BMX inhibitor for prostate cancer” (ACS Chem Biol, 2013)
Calls of active or inactive are those of the source. No cut-off for these calls is given here.

Assays:
[1] = target: SRSF protein kinase 1 (Homo sapiens) (UniProt Q96SB4); assay: Inhibition of SRPK1 (unknown origin) assessed as remaining activity at 1 uM by Kinome scan method relative to control
[2] = target: Vascular endothelial growth factor receptor 3 (Homo sapiens) (UniProt P35916); assay: Inhibition of FLT4 (unknown origin) assessed as remaining activity at 1 uM by Kinome scan method relative to control
[3] = test system: RV-1; assay: Antiproliferative activity against human RV-1 cells assessed as reduction in cell viability at 500 to 2500 nM incubated for 5 days in presence of <25 nM MK2206 by CellTiter-Glo assay; format: functional, cell-based; conditions: dose 500-2500 nM, time 5.0 day
[4] = target: Serine/threonine-protein kinase ULK1 (Homo sapiens) (UniProt O75385); assay: Inhibition of ULK1 (unknown origin) assessed as remaining activity at 1 uM by Kinome scan method relative to control
[5] = target: Membrane-associated tyrosine- and threonine-specific cdc2-inhibitory kinase (Homo sapiens) (UniProt Q99640); assay: Inhibition of PKMYT1 (unknown origin) assessed as remaining activity at 1 uM by Kinome scan method relative to control
[6] = test system: Tyrosine-protein kinase ABL1 (Homo sapiens), P00519 [F317I]; assay: Inhibition of ABL1 F317I mutant (unknown origin) assessed as remaining activity at 1 uM by Kinome scan method relative to control
[7] = target: Interleukin-1 receptor-associated kinase 4 (Homo sapiens) (UniProt Q9NWZ3); assay: Inhibition of IRAK4 (unknown origin) assessed as remaining activity at 1 uM by Kinome scan method relative to control
[8] = target: Phosphatidylinositol 5-phosphate 4-kinase type-2 gamma (Homo sapiens) (UniProt Q8TBX8); assay: Inhibition of PIP5K2C (unknown origin) assessed as remaining activity at 1 uM by Kinome scan method relative to control
[9] = target: Serine/threonine-protein kinase PLK2 (Homo sapiens) (UniProt Q9NYY3); assay: Inhibition of PLK2 (unknown origin) assessed as remaining activity at 1 uM by Kinome scan method relative to control
[10] = target: Serine/threonine-protein kinase MAK (Homo sapiens) (UniProt P20794); assay: Inhibition of MAK (unknown origin) assessed as remaining activity at 1 uM by Kinome scan method relative to control
[11] = target: Ribosomal protein S6 kinase alpha-6 (Homo sapiens) (UniProt Q9UK32); assay: Inhibition of C-terminal kinase domain RSK4 (unknown origin) assessed as remaining activity at 1 uM by Kinome scan method relative to control
[12] = test system: BaF3; assay: Antiproliferative activity against mouse BaF3 cells expressing TEL-fused TYK2 […] mutant assessed growth inhibition incubated for 2 to 5 days by CellTiter-Glo assay; format: functional; conditions: time 2-5 day
[13] = target: Myosin light chain kinase family member 4 (Homo sapiens) (UniProt Q86YV6); assay: Inhibition of MYLK4 (unknown origin) assessed as remaining activity at 1 uM by Kinome scan method relative to control
[14] = target: Mitogen-activated protein kinase 8 (Homo sapiens) (UniProt P45983); assay: Inhibition of JNK1 (unknown origin) assessed as remaining activity at 1 uM by Kinome scan method relative to control
[15] = target: Mitogen-activated protein kinase 4 (Homo sapiens) (UniProt P31152); assay: Inhibition of ERK4 (unknown origin) assessed as remaining activity at 1 uM by Kinome scan method relative to control
[16] = target: Myosin-IIIb (Homo sapiens) (UniProt Q8WXR4); assay: Inhibition of MYO3B (unknown origin) assessed as remaining activity at 1 uM by Kinome scan method relative to control
[17] = target: Serine/threonine-protein kinase Nek2 (Homo sapiens) (UniProt P51955); assay: Inhibition of NEK2 (unknown origin) assessed as remaining activity at 1 uM by Kinome scan method relative to control
[18] = target: Serine/threonine-protein kinase pim-3 (Homo sapiens) (UniProt Q86V86); assay: Inhibition of PIM3 (unknown origin) assessed as remaining activity at 1 uM by Kinome scan method relative to control
[19] = target: cAMP-dependent protein kinase catalytic subunit PRKX (Homo sapiens) (UniProt P51817); assay: Inhibition of PRKX (unknown origin) assessed as remaining activity at 1 uM by Kinome scan method relative to control
[20] = target: Tyrosine-protein kinase HCK (Homo sapiens) (UniProt P08631); assay: Inhibition of HCK (unknown origin) assessed as remaining activity at 1 uM by Kinome scan method relative to control
[21] = test system: Proto-oncogene tyrosine-protein kinase receptor Ret (Homo sapiens), P07949 [V804M]; assay: Inhibition of RET V804M (unknown origin) assessed as remaining activity at 1 uM by Kinome scan method relative to control
[22] = test system: LNCaP C4-2; assay: Antiproliferative activity against human C4-2 cells assessed growth inhibition incubated for 2 to 5 days by CellTiter-Glo assay; format: functional; conditions: time 2-5 day
[23] = target: Tyrosine-protein kinase JAK1 (Homo sapiens) (UniProt P23458); assay: Inhibition of JAK1 JH2 domain (unknown origin) assessed as remaining activity at 1 uM by Kinome scan method relative to control
[24] = target: Macrophage colony-stimulating factor 1 receptor (Homo sapiens) (UniProt P07333); assay: Inhibition of CSF1R (unknown origin) assessed as remaining activity at 1 uM by Kinome scan method relative to control
[25] = Induction of cell cycle arrest in human RV-1 cells assessed as accumulation of cells at S phase at 2.5 uM incubated for 5 days by propidium iodide staining based flow cytometric analysis (reference value: 28.9 %); format: functional; conditions: time 5 day
[26] = Inhibition of PI3K/AKT/mTOR signalling pathway in human RV-1 cells assessed as decrease in FOXO3A phosphorylation at S253 residue at 2.5 uM incubated for 4 hrs by immunoblot analysis; format: cell-based
[27] = target: Serine/threonine-protein kinase MARK1 (Homo sapiens) (UniProt Q9P0L2); assay: Inhibition of MARK1 (unknown origin) assessed as remaining activity at 1 uM by Kinome scan method relative to control
[28] = target: Ephrin type-B receptor 2 (Homo sapiens) (UniProt P29323); assay: Inhibition of EPHB2 (unknown origin) assessed as remaining activity at 1 uM by Kinome scan method relative to control
[29] = Induction of cell cycle arrest in human RV-1 cells assessed as accumulation of cells at G1 phase at 2.5 uM incubated for 5 days in presence of MK2206 by propidium iodide staining based flow cytometric analysis (reference value: 59.7 %); format: functional; conditions: time 5 day
[30] = target: Ribosomal protein S6 kinase alpha-4 (Homo sapiens) (UniProt O75676); assay: Inhibition of N-terminal kinase domain RPS6KA4 (unknown origin) assessed as remaining activity at 1 uM by Kinome scan method relative to control
[31] = test system: Mast/stem cell growth factor receptor Kit (Homo sapiens), P10721 [V559D]; assay: Inhibition of KIT V559D mutant (unknown origin) assessed as remaining activity at 1 uM by Kinome scan method relative to control
[32] = target: STE20-like serine/threonine-protein kinase (Homo sapiens) (UniProt Q9H2G2); assay: Inhibition of SLK (unknown origin) assessed as remaining activity at 1 uM by Kinome scan method relative to control

Sequence of Proto-oncogene tyrosine-protein kinase receptor Ret (Homo sapiens), P07949 [V804M] (P07949 whole entry V804M): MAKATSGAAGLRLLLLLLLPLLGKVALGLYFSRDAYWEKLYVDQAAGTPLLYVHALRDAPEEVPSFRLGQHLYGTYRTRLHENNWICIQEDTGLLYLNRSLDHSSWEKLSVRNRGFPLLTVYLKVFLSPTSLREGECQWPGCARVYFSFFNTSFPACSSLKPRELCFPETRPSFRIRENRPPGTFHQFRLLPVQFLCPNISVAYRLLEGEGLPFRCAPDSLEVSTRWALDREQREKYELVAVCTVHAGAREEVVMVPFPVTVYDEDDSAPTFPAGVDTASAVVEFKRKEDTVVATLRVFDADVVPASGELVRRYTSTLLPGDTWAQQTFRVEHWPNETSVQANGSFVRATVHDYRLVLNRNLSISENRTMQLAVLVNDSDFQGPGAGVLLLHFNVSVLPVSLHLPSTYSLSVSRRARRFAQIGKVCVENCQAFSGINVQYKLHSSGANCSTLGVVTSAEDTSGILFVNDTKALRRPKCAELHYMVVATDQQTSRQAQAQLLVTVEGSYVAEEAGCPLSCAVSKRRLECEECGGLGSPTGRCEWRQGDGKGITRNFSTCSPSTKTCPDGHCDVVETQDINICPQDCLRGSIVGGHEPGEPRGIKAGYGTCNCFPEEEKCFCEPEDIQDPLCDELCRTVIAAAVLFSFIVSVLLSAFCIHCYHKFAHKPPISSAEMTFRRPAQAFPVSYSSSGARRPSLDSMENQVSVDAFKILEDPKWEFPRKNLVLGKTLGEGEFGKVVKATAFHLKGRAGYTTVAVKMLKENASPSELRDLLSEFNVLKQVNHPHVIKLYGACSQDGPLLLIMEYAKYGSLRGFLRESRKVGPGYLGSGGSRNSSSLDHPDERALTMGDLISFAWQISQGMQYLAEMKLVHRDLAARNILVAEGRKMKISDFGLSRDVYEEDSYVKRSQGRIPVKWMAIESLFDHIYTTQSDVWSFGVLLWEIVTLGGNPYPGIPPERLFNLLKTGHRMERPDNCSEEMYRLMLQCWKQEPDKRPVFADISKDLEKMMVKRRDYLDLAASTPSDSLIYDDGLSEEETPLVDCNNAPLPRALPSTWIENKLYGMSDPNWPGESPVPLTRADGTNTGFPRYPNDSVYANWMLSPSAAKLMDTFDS
Sequence of SRSF protein kinase 1 (Homo sapiens) (Q96SB4 whole entry): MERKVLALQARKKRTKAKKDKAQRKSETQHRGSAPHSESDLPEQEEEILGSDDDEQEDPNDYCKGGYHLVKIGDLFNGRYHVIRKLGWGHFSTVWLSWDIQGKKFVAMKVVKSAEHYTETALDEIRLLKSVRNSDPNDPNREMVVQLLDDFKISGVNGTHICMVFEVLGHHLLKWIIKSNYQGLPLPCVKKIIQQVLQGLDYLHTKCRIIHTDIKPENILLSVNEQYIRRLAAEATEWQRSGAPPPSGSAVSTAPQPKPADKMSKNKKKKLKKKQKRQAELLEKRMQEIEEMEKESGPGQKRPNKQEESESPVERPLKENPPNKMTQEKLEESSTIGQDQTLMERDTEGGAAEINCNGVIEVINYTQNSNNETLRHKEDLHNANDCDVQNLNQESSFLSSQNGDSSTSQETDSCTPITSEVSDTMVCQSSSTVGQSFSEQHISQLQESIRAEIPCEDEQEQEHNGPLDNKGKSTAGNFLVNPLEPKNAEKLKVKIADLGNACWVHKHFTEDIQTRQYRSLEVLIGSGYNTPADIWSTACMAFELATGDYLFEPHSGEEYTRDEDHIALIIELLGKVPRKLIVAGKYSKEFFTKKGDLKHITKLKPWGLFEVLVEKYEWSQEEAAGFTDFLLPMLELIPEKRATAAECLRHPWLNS
Sequence of Mitogen-activated protein kinase 4 (Homo sapiens) (P31152 whole entry): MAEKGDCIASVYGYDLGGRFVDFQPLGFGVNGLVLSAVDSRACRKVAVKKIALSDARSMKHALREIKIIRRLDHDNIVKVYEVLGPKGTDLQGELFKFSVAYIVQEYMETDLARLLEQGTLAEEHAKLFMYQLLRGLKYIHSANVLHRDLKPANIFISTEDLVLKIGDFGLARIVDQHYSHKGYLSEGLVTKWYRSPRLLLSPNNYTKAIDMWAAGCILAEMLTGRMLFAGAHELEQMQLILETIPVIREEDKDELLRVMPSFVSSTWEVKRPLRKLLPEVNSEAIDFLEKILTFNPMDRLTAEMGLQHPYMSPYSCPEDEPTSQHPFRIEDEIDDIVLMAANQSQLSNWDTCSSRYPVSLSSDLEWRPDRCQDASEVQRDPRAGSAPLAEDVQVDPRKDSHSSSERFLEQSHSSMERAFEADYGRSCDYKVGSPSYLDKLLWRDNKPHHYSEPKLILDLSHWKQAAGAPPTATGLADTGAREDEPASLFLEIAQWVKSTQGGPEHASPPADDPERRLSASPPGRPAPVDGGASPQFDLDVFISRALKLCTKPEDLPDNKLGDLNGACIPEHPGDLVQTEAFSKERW
Sequence of Myosin light chain kinase family member 4 (Homo sapiens) (Q86YV6 whole entry): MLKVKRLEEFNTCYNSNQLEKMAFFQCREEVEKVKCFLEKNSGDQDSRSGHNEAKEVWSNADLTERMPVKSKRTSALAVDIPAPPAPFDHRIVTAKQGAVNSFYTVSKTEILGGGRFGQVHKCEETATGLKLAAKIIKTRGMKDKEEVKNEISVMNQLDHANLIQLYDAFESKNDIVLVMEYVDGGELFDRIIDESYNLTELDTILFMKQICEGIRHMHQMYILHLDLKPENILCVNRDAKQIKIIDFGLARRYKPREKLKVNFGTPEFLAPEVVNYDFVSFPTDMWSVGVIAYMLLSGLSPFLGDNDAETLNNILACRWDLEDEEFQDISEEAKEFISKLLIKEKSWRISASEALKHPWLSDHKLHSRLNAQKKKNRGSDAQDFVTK
Sequence of Mast/stem cell growth factor receptor Kit (Homo sapiens), P10721 [V559D] (P10721 whole entry V559D): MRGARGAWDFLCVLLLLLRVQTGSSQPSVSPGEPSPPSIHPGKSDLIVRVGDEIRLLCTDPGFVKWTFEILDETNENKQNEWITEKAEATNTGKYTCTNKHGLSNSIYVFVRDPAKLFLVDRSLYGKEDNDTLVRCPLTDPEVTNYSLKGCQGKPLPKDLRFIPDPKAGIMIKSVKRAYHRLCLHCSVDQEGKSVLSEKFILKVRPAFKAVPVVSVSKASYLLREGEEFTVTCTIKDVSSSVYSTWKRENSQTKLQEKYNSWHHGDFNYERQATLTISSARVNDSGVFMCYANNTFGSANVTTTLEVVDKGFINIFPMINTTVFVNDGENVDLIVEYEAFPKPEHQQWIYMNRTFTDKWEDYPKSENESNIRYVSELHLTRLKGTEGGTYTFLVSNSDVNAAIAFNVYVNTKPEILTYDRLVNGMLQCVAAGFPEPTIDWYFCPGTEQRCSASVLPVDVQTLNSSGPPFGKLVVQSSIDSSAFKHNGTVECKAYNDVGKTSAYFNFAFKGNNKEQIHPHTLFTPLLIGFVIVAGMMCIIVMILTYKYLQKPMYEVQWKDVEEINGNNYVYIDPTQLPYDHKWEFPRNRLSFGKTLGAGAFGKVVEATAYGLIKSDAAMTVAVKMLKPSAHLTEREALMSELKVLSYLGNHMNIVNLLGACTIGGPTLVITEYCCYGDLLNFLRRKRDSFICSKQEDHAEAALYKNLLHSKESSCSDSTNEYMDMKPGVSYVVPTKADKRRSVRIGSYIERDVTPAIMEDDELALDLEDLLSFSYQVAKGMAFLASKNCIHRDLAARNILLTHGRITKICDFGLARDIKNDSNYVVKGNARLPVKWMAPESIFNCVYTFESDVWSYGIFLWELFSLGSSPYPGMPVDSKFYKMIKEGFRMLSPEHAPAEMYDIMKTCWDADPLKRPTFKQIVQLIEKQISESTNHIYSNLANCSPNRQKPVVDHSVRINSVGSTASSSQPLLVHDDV
Sequence of Mitogen-activated protein kinase 8 (Homo sapiens) (P45983 whole entry): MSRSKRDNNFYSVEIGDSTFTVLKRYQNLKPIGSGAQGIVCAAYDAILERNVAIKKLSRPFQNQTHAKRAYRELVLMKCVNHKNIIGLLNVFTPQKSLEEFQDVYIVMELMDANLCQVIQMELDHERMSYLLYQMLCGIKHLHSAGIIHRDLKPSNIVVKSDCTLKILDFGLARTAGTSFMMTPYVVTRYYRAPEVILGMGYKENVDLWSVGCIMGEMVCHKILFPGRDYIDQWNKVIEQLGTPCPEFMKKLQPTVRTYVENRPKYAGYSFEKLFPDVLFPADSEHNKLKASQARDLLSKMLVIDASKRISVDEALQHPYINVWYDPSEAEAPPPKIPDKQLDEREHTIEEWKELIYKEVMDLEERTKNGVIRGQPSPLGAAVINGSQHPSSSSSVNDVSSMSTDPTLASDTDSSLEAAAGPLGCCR
Sequence of Serine/threonine-protein kinase Nek2 (Homo sapiens) (P51955 whole entry): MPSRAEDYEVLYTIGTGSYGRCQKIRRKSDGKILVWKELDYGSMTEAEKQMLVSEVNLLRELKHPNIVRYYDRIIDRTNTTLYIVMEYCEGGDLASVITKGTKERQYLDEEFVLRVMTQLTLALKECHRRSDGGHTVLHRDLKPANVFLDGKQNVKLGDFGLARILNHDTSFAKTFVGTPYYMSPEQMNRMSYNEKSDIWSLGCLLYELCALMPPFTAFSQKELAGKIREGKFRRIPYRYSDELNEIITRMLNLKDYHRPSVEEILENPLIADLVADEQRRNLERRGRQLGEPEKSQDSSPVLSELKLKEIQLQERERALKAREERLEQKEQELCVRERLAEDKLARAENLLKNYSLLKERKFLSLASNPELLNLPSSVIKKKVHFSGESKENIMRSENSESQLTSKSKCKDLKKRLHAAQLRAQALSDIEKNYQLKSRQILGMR

With `C=CC(=O)Nc1cc(-n2c(=O)ccc3cnc4ccc(-c5ccc(NS(C)(=O)=O)cc5)cc4c32)ccc1C` as the compound, how does the Activity [1] read?
The Activity was 78%.

And the Activity [2]?
Its Activity is 72%.

And the Activity [3]?
The Activity was “Active”.

What about the Activity [4] of the same compound?
Its Activity is 84%.

And the Activity [5]?
Its Activity is 77%.

What about the Activity [6] of the same compound?
The Activity was 81%.

And the Activity [7]?
The Activity was 84%.

What about the Activity [8] of the same compound?
Its Activity is 5.6%.

And the Activity [9]?
The Activity was 72%.

And the Activity [10]?
The Activity was 70%.

And the Activity [11]?
The Activity was 56%.

What about the GI50 [12] of the same compound?
Its GI50 is 6.09 µM.

And the Activity [13]?
The Activity was 96%.

What about the Activity [14] of the same compound?
The Activity was 93%.

What about the Activity [15] of the same compound?
The Activity was 91%.

What about the Activity [16] of the same compound?
Its Activity is 92%.

What about the Activity [17] of the same compound?
The Activity was 79%.

What about the Activity [18] of the same compound?
The Activity was 83%.

What about the Activity [19] of the same compound?
Its Activity is 77%.

And the Activity [20]?
Its Activity is 97%.

What about the Activity [21] of the same compound?
Its Activity is 85%.

And the GI50 [22]?
The GI50 was > 10 µM.

And the Activity [23]?
Its Activity is 99%.

What about the Activity [24] of the same compound?
The Activity was 94%.

And the Activity [25]?
Its Activity is 20.6%.

What about the inhibition [26] of the same compound?
Its inhibition is “inactive”.

And the Activity [27]?
The Activity was 97%.

What about the Activity [28] of the same compound?
Its Activity is 80%.

What about the Activity [29] of the same compound?
The Activity was 64.2%.

What about the Activity [30] of the same compound?
Its Activity is 67%.

And the Activity [31]?
Its Activity is 87%.

What about the Activity [32] of the same compound?
The Activity was 59%.
